We go through 89 compounds from a melting point compilation (Tetko et al.; mined from patent text by program, amines drawn as free bases though some values may be those of a salt).

Structures are written as SMILES.

For orientation: melting point means the temperature, or range, at which the solid turns liquid.

In turn, `O=C(c1ccc([N+](=O)[O-])cc1)N1CCc2cn[nH]c2-c2ncccc21` yielded a melting point of 255 to 256 °C.

`CCCN1NC(c2ccc(C)cc2)C2=C1C(=Cc1ccc(C)cc1)CSC2` (centres undefined): the melting point lay within 140 to 143 °C.

In turn, `COc1ccc2[nH]c3cc(-c4cc([N+](=O)[O-])ccc4OC)c4c(c3c2c1)C(=O)NC4=O` came in with a melting point of 302 to 304 °C. Take `CCC(=O)N1Cc2cn[nH]c2-c2ccccc21`: the melting point lay in the range of 130 to 131 °C. Regarding `Cc1nsc(NC(=O)C(C)c2ccc3oc(-c4cccc(Cl)c4Cl)nc3c2)c1Cl` (centres undefined), the melting point lay within 158 to 161 °C. As for `NN1CCN(C2c3ccccc3C=C(Br)c3ccccc32)CC1` (centres undefined), the melting point was 188 to 190 °C. Compound `CCCCCCCCCCCc1cc2ccc(C(=O)O)cc2n1C` registered a melting point of 165 to 168 °C. For `CC1(CSc2ccccc2)COC2(CCCCC2)OO1` (centres undefined), the melting point lay in the range of 45 to 46 °C.

In turn, `O=C(Oc1ccccc1)c1ccc2c(c1)S(=O)(=O)NCN2C1CC1` returned a melting point of 160 to 162 °C. Compound `Nc1nc(-n2cc(C(=O)O)c(=O)c3cc(F)c(N4CC(O)C4)c(Cl)c32)c(F)cc1F` showed a melting point of 235 to 238 °C. In turn, `Cc1ccc(-c2ccc(S(=O)(=O)Nc3onc(C)c3Br)cc2)cc1` showed a melting point of 153 to 156 °C. Take `CC(=O)N[C@@H](C)COc1ccc(-c2nc3ccc(OCC4CC4)cc3o2)nc1`: the melting point lay in the range of 179 to 180 °C. For the compound `CN(C)CCCCNc1nc2cc(Cl)c(Cl)cc2nc1-c1ccccn1`, the melting point fell in the range of 81 to 83 °C.

`CN(CCO)c1nccc(Oc2ccc(NC(=O)c3cc(F)cc(N4CCOCC4)c3)c3ccccc23)n1`: the melting point was 100 to 102 °C. `CC(CO)C1CCC2C3CCC4=CC(=O)CCC4(C)C3CCC12C` (centres undefined) came in with a melting point of 140 to 141 °C. `Cc1cccc(C(=O)O)c1NC(=S)Cc1ccccc1` displayed a melting point of 148 to 150 °C. In turn, `COc1ccc(-n2c(-c3ccc(Br)cc3)nc3c4ccccc4c4ccccc4c32)cc1` had a melting point of 239 °C. As for `CC(=O)Nc1cccc(NC(=O)C=C2CC(C(=O)O)Nc3cc(Cl)cc(Cl)c32)c1` (racemic), the melting point fell in the range of 190 to 193 °C. In turn, `C=CS(=O)(=O)NCc1ccc(C(N)=O)cc1` gave a melting point of 142 to 144 °C. `CCCCc1nc2cccc(CCO)c2n1Cc1ccccc1Cl` gave a melting point of 130 to 132 °C. In the case of `COc1ccc2[nH]cc(/C(C#N)=C/c3ccn(C)n3)c2c1`, the melting point worked out at 178 °C. In turn, `CCCCCCCCCCCCc1cc2cc(C(=O)OCCCC)ccc2[nH]1` registered a melting point of 74 to 76 °C.

Regarding `Cc1cc(C)c(C2C(=O)C(Cc3ccc(Cl)cc3)N(C)C2=O)c(C)c1` (centres undefined), the melting point was > 230 °C.

`COc1ccccc1C1Cc2c(ccn2C)C2C(=O)NC(=O)C12` (centres undefined) returned a melting point of 208 to 212 °C. In turn, `O=C(O)C(F)(CCC(F)(F)C(F)(F)C(F)(F)C(F)(F)F)C(F)(F)F` (centres undefined) returned a melting point of 45 to 46 °C. The value for `COc1cc2c(cc1OC)C1=C(C#N)SCC(=O)N1CC2` was 186 to 187 °C; that for `N#Cc1ccc(-c2nc(CCl)co2)s1` was 146 to 147 °C; that for `Cc1cccc2nc(C(C)(C)NC(=O)COC3c4ccccc4-c4ccccc43)oc(=O)c12` was 162 to 163 °C.

Compound `CCCCC(CC(=O)Nc1cc(C(N)=O)ccc1C(C)(C)C)c1ccc(OCCCS(=O)(=O)CCC)cc1OC` (centres undefined) had a melting point of 108 to 128 °C. The compound `CCOC(=O)C1Cc2c([nH]c3ccccc23)CN1C(=S)SC` (centres undefined) gave a melting point of 139 to 141 °C.

Consider `CC(CC(=O)NO)c1cccc(Nc2ccccc2-c2n[nH]c(=S)o2)c1Cl` (centres undefined), for which the melting point was 205 to 207 °C. As for `CCCSc1sc(C(N)=O)c2c1-c1nc(-c3ccccc3)sc1CC2`, the melting point fell in the range of 203 to 204 °C. For the compound `Oc1ccc2c(c1)Cc1c-2cc2ccc(O)cc2c1C=C(F)F`, the melting point lay in the range of 211 to 212 °C. In the case of `Nc1c(Br)cc(Br)c(O)c1Br`, the melting point is 119 °C. `Cc1ccc(Cc2cnc(NCCSCc3cc(CN(C)C)ccn3)[nH]c2=O)cn1` registered a melting point of 128 to 130 °C. Take `O=C1c2c(O)cccc2C(=CCc2ccccc2)c2cccc(O)c21`: the melting point fell in the range of 128 to 129 °C.

Compound `Cc1oc(-c2ccccc2)nc1COc1ccc(COc2nn(-c3ccccc3)cc2/C=C/C(=O)O)cc1` showed a melting point of 186 to 187 °C. Regarding `O=C1CN2C(=N1)NCc1c(Cl)cccc12`, the melting point lay in the range of 127 to 129 °C.

The compound `OCC(O)Cc1nccn1CCCc1cccc(OCc2coc(/C=C/c3ccc(C(F)(F)F)cc3)n2)c1` (centres undefined) showed a melting point of 102 to 104 °C. Consider `CC(C)c1nc(-c2ncn3c2C(C)(C)N(C(=O)N2CCCC2)c2cc(F)ccc2-3)no1`, for which the melting point lay in the range of 154 to 156 °C. Take `O=C(O)C(=O)c1ccc(S(=O)CCOc2ccc3ccccc3c2)cc1` (centres undefined): the melting point is 157 to 158 °C. Compound `C[C@@H](N1CCN(c2ccc(Cl)cc2)C1=O)[C@@]1(c2ccc(F)cc2F)CO1` yielded a melting point of 130 to 131 °C. `CC(C)n1ncnc1COc1nn2c(-c3cc(F)ccc3F)nncc2c1C(C)(C)C` came in with a melting point of 163 °C. In turn, `CC1=CC(N(C)Cc2ccccc2)C(O)C(C)(C)CC1=O` (centres undefined) showed a melting point of 78.5 to 80 °C. Compound `CC(C)(C)NC(=O)c1ncccc1CCc1cccc(Cl)c1` yielded a melting point of 45 to 46 °C. In turn, `O=C1C(=O)c2ccccc2C2=C1SCC1(CCN(C(=O)c3ccc(Cl)c(Cl)c3)CC1)O2` returned a melting point of 221 °C. `COC(=O)c1c(C)n(-c2cc([N+](=O)[O-])c(C)cc2C)cc(Cl)c1=O` came in with a melting point of 266 °C. For `Cc1nn(C)c2c1nc(O)c1c(C(=O)O)cnn12`, the melting point was > 300 °C.

On to `Cc1cc(Br)nc2c1OCC(=O)N2`, for which the melting point came to 174 °C.

Regarding `CCC1(CC)CC(=O)c2cc(C#N)ccc2O1`, the melting point lay in the range of 71 to 72 °C. In turn, `Cn1cnc2ncnn2c1=S` had a melting point of 238 to 240 °C. The same measure for `Cc1ccc(COC2C(Sc3ccccc3)OC(C)C(OC(=O)c3ccccc3)C2OC(=O)c2ccccc2)cc1` (centres undefined): 81 to 83 °C. As to `Fc1ccc(F)c(-n2nnc3cccnc32)c1`, the melting point worked out at 140 °C. `CCn1c(C)nc(N2CCc3ccccc3CC2)c([N+](=O)[O-])c1=O` registered a melting point of 145 to 147 °C. Turning to `N#Cc1cccc(/C=C/c2cc(Cl)cnc2N)c1`, the melting point was > 275 °C. As to `CCOC(=O)c1cc2cc(N=[N+]=[N-])ccc2[nH]1`, the melting point stood at 140 °C. `Cc1nnc(S(C)(=O)=O)o1` returned a melting point of 70 to 71 °C. As for `O=CCC1Cc2cc(Cl)c(Cl)cc2C1=O` (racemic), the melting point was in the range of 93 to 96 °C. `COCCOCC(=O)C1CCC2C3CCC4CC(O)CCC4(C)C3C(=O)CC12C` (centres undefined): the melting point was in the range of 115 to 121 °C. The value for `CCOC(=O)c1nc2scc(COC(=O)c3ccc(CO)cc3)c2c(=O)[nH]1` was 196 °C; that for `CCCCCCCCCCCCCCCCOCC(O)CN1CCC(C#N)(c2ccccc2)CC1` (centres undefined) was 69 to 70 °C. With `CCCCCCCCSc1ccc(C#N)c(C#N)c1`, the melting point is 37 to 38 °C. On to `CCNc1cccnc1N1CCN(C(=O)c2ccc(C(=O)O)cc2)CC1`, for which the melting point lay within 208 to 209 °C.

For `N#Cc1cc(F)c(-n2ncc(=O)[nH]c2=O)cc1F`, the melting point is > 250 °C. Consider `O=[N+]([O-])c1ccc(C2CCc3c(CCCCCCO)n[nH]c3C2)cc1` (centres undefined), for which the melting point lay in the range of 69 to 70 °C.

As for `Oc1ccc2c(c1)CCCC(c1ccccc1)=C2c1ccc(OCCCCCSCCCC(F)(F)F)cc1`, the melting point came to 168 °C. As for `COc1ccc(-c2cc(=O)n(C)c(=O)n2C)cc1OC`, the melting point is 118 to 120 °C. In the case of `O=C(O)C(Cl)(Cl)Cc1ccccc1`, the melting point fell in the range of 173 to 176 °C.

For the compound `Cn1c(COc2ccc(CC3SC(=O)NC3=O)cc2)nc2ccc(-c3ccccc3)nc21` (centres undefined), the melting point lay within 211 to 213 °C. Compound `CC1(C)OC(=O)Nc2cc(-c3cccc(Cl)c3)sc21` showed a melting point of 123 to 125 °C.

`O=c1c2cccnc2c(-c2ccccc2)cn1Cc1ccncc1` came in with a melting point of 200 °C. As to `O=C(c1ccccc1)c1ccc(N2CCCCC2)c([N+](=O)[O-])c1`, the melting point was 77 °C. The value for `O=C(c1cccc(-c2ccccc2)c1C(=O)C(Cl)(Cl)Cl)C(Cl)(Cl)Cl` was 137 to 152 °C; that for `CC(=O)Nc1ccc2oc(C(=O)O)cc2c1` was > 300 °C.

In turn, `CC(=O)Nc1cccc(-c2ccnc3c(C#N)cnn23)c1` showed a melting point of 252 to 254 °C.

`CCn1cc([N+](=O)[O-])cn1` displayed a melting point of 54 to 55 °C. The compound `COc1ccc(CN(Cc2ccc(OC)cc2)c2nc(-c3ccccc3)c(-c3ccc(=O)n(C(C)C)n3)nc2C#N)cc1` had a melting point of 207 to 209 °C. Consider `CC(C)CC(=O)Nc1cccc(-c2ccnc3c(-c4cccc(C=O)c4)cnn23)c1`, for which the melting point lay in the range of 163 to 165 °C. The same measure for `O=C1CNc2ccc(F)cc2O1`: 199 °C.

`CC(C)NC(=O)c1cnc(N2CCC(N3C(=O)OCc4ccccc43)CC2)c(Cl)c1` had a melting point of 216 °C.

For the compound `Cc1c(C)c2c(c(C)c1NC(=O)C(C)(C)C)C(c1ccc(C(C)C)cc1)CO2` (centres undefined), the melting point is 177 to 178 °C. As for `CCOC(=O)c1ccc(OCC2CCN(c3ccc(OC)nn3)CC2)cc1`, the melting point was 147 °C. With `CCCCNc1cc(CN(Cc2ccccc2)C(C)=O)cc(S(N)(=O)=O)c1Oc1ccccc1`, the melting point lay within 75 to 77 °C. `O=C(Nc1cc2ncc(CN3CCCC3)cc2cc1Cl)c1ccc(-c2ccc(Cl)s2)cc1` came in with a melting point of 185 °C.

As to `CN(C)Cc1ccc(CSCCNC2=NS(=O)(=O)C(S(C)(=O)=O)=C2N)o1`, the melting point lay within 187 to 189 °C.

On to `O=C(O)c1cc2c([N+](=O)[O-])c(O)c(O)cc2oc1=O`, for which the melting point is > 300 °C. In the case of `O=C1CC(=Cc2ccccc2)C(=O)O1`, the melting point fell in the range of 167 to 170 °C.

Turning to `COc1ccccc1N1CCc2c(Cl)nc3c(OC)cccc3c21`, the melting point was in the range of 99 to 101 °C. `CC(=O)N[C@@H]1CCN(S(=O)(=O)c2ccc(Cl)c(COc3cccc4c(-n5ccnc5)cc(C)nc34)c2Cl)C1` returned a melting point of 246 °C.
